Source: patent US8642597B2, “Pyrazole compounds for controlling invertebrate pests” (BASF SE, priority 2007, dated 2014)

Legend:
Assay type in all cases: in vivo
[1] = tested on: Southern Armyworm (spodoptera eridania, 2nd instar larvae); assay: Southern armyworm (spodoptera eridania, 2nd instar larvae), lima bean leaf dip test; settings: foliar, 96 h, at 4 days, in comparison with untreated controls
Description: (§1) The active compounds were formulated in 50:50 (vol:vol) acetone:water and 100 ppm Kinetica™ surfactant.
A pair of first true leaves of Sieva lima bean was dipped in the test solution and allowed to dry. The leaf was then placed in a plastic perforated zip enclosure bag and ten 2nd instar larvae were added. At 4 days, observations were made of mortality and reduced feeding.

[2] = tested on: Mediterranean Fruitfly (Ceratitis capitata); assay: Activity against Mediterranean fruitfly (Ceratitis capitata), insect diet microtiter plate test; settings: 120 h, eggs treated with 2500 ppm, egg and larval mortality after 5 days
Description: The active compounds were formulated in 1:3 (vol:vol) DMSO:water.
For evaluating control of Mediterranean fruitfly the test unit consisted of microtiter plates containing an insect diet and 50 to 80 C. capitata eggs.
Different concentrations of formulated compounds were sprayed onto the insect diet at 5 μl, using a custom built micro atomizer, at two replications. After application, microtiter plates were incubated at 28±1° C. and 80±5% relative humidity for 5 days. Egg and larval mortality was then visually assessed.

Bean Aphid (Aphis fabae) = assay: Bean aphid (Aphis fabae), nasturtium plant dip test; settings: 72 h, after 3 days, in comparison with untreated controls
Excerpt: as §1
Nasturtium plants grown in Metro mix in the 1st leaf-pair stage (variety ‘Mixed Jewel’) were infested with approximately 2-30 laboratory-reared aphids by placing infested cut plants on top of the test plants. The cut plants were removed after 24 hr. Each plant was dipped into the test solution to provide complete coverage of the foliage, stem, protruding seed surface and surrounding cube surface and allowed to dry in the fume hood. The treated plants were kept at about 25° C. with continuous fluorescent light. Aphid mortality is determined after 3 days.

[3] = tested on: Green Peach Aphid (Myzus persicae, Mixed Life Stages); assay: Green peach aphid (Myzus persicae, mixed life stages), pepper leaf dip test; settings: foliar, 120 h, after 5 days, in comparison with untreated controls
Excerpt: as §1
Pepper plants in the 2nd leaf-pair stage (variety ‘California Wonder’) were infested with approximately 40 laboratory-reared aphids by placing infested leaf sections on top of the test plants. The leaf sections were removed after 24 hr. The leaves of the intact plants were dipped into gradient solutions of the test compound and allowed to dry. Test plants were maintained under fluorescent light (24 hour photoperiod) at about 25° C. and 20-40% relative humidity. Aphid mortality on the treated plants, relative to mortality on check plants, was determined after 5 days.

[4] = tested on: Cowpea Aphid (aphis craccivora); assay: Cowpea aphid (aphis craccivora), spray on potted cowpea plants; settings: population reduction assessed after 24, 72 and 120 hours, in comparison with untreated controls
Description: The active compounds were formulated in 50:50 (vol:vol) acetone:water. The test solution was prepared at the day of use.
Potted cowpea plants colonized with 100-150 aphids of various stages were sprayed after the pest population had been recorded. Population reduction was assessed after 24, 72, and 120 hours.

[5] = tested on: Cotton Aphid (aphis gossypii, Mixed Life Stages); assay: Cotton aphid (aphis gossypii, mixed life stages), cotyledon dip test; settings: 120 h, mortality counts after 5 days, in comparison with untreated controls
Excerpt: as §1
Cotton plants at the cotyledon stage (one plant per pot) were infested by placing a heavily infested leaf from the main colony on top of each cotyledon. The aphids were allowed to transfer to the host plant overnight, and the leaf used to transfer the aphids was removed. The cotyledons were dipped in the test solution and allowed to dry. After 5 days, mortality counts were made.

[6] = tested on: Vetch Aphid (Megoura viciae); assay: Vetch aphid (Megoura viciae), bean leaf disk microtiterplate test; settings: foliar, 144 h, concentration of the test solution 2500 mg/L, 6 days
Description: The active compounds were formulated in 1:3 (vol:vol) DMSO:water with different concentrations of formulated compounds.
Bean leaf disks were placed into microtiterplates filled with 0.8% agar-agar and 2.5 ppm OPUS™. The leaf disks were sprayed with 2.5 μl of the test solution and 5 to 8 adult aphids were placed into the microtiterplates which were then closed and kept at 23±1° C. and 50±5% relative humidity under fluorescent light for 6 days. Mortality was assessed on the basis of vital, reproduced aphids. Aphid mortality and fecundity was then visually assessed.

[7] = tested on: Boll Weevil (Anthonomus grandis); assay: Boll weevil (Anthonomus grandis), insect diet microtiter plate test; settings: 120 h, concentration of the test solution 2500 mg/L, egg and larval mortality after 5 days
Description: The compounds were formulated in 75:25 (vol:vol) water:DMSO.
For evaluating control of boll weevil (Anthonomus grandis) the test unit consisted of 24-well-microtiter plates containing an insect diet and 20-30 A. grandis eggs. Different concentrations of formulated compounds were sprayed onto the insect diet at 20 μl, using a custom built micro atomizer, at two replications. After application, the microtiter plates were incubated at 23±1° C. and 50±5% relative humidity for 5 days. Egg and larval mortality was then visually assessed.

[8] = tested on: Silverleaf Whitefly (bemisia argentifolii, adult); assay: Silverleaf whitefly (bemisia argentifolii, adult), cotton cotyledon dip test; settings: 72 h, 3 days after treatment, in comparison with untreated controls
Description: as §1
Selected cotton plants were grown to the cotyledon state (one plant per pot). The cotyledons were dipped into the test solution to provide complete coverage of the foliage and placed in a well-vented area to dry. Each pot with treated seedling was placed in a plastic cup and 10 to 12 whitefly adults (approximately 3-5 day old) were introduced. The insects were collected using an aspirator and an 0.6 cm, non-toxic Tygon® tubing (R-3603) connected to a barrier pipette tip. The tip, containing the collected insects, was then gently inserted into the soil containing the treated plant, allowing insects to crawl out of the tip to reach the foliage for feeding. The cups were covered with a reusable screened lid (150 micron mesh polyester screen PeCap from Tetko Inc). Test plants were maintained in the holding room at about 25° C. and 20-40% relative humidity for 3 days avoiding direct exposure to the fluorescent light (24 hour photoperiod) to prevent trapping of heat inside the cup. Mortality was assessed 3 days after treatment of the plants.

[9] = tested on: Brown Planthopper (nilaparvata lugens); assay: Brown planthopper (nilaparvata lugens), rice seedling spray test; settings: after 72 hours, in comparison with untreated controls
Description: The active compounds were formulated as a 50:50 (vol:vol) acetone:water solution. Surfactant (Alkamuls EL 620) was added at the rate of 0.1% (vol/vol).
Rice seedlings were cleaned and washed 24 h before spraying. Potted rice seedlings were sprayed with 5 ml test solution, air dried, placed in cages and inoculated with 10 adults. Treated rice plants were kept at 28-29° C. and relative humidity of 50-60%. Percent mortality was recorded after 72 hours.

| Compound | mortality at 300 ppm [1] | mortality at 2500 ppm [2] | mortality at 10 ppm (Bean Aphid (Aphis fabae)) | mortality at 300 ppm [3] | mortality at 300 ppm [4] | mortality at 300 ppm [5] | mortality at 2500 µg/mL [6] | mortality at 2500 µg/mL [7] | mortality at 300 ppm [8] | mortality at 300 ppm [9] |
| --- | --- | --- | --- | --- | --- | --- | --- | --- | --- | --- |
| O=C(Nc1cccnc1)c1cn[nH]c1-c1cccs1 [Compound 77] | ≥ 50% | 50% |  |  |  |  |  |  |  |  |
| CCCN(C(=O)c1cn(C)nc1C(F)(F)F)c1cccnc1 [Compound 129] |  |  | ≥ 90% |  |  |  |  |  |  |  |
| O=C(Nc1cccnc1)c1cnn(-c2ccccc2)c1Cl [Compound 123] |  |  | ≥ 90% | ≥ 50% | ≥ 75% | ≥ 75% | ≥ 80% |  |  |  |
| CN(C(=O)c1cn(CC(F)F)nc1C(F)(F)F)c1cccnc1 [Compound 234] |  | 50% |  |  |  |  | ≥ 80% | 100% |  |  |
| Cc1c(C(=O)Nc2cccnc2)cnn1-c1nccs1 [Compound 116] |  |  | ≥ 90% | ≥ 50% | ≥ 75% | ≥ 75% | ≥ 80% | 100% |  |  |
| Cn1cc(C(=O)Nc2cccnc2)c(C(F)(F)F)n1 [Compound 13, 1-methyl-3-trifluoromethyl-1H-pyrazole-4-carboxylic acid pyridin-3-ylamide] |  |  | ≥ 90% |  |  |  |  | ≥ 50% |  |  |
| CCN(C(=O)c1cn(C)nc1C(F)(F)F)c1cccnc1 [Compound 127] |  |  | ≥ 90% | ≥ 50% |  | ≥ 75% | ≥ 80% |  |  |  |
| CCn1cc(C(=O)Nc2cccnc2)c(C(F)F)n1 [Compound 181] |  | 50% |  | ≥ 50% | ≥ 75% | ≥ 75% | ≥ 80% |  |  |  |
| Cn1cc(C(=O)Nc2cccnc2)c(C(F)(F)F)n1 [Compound 100] |  | 50% |  |  |  |  | ≥ 80% |  | ≥ 50% |  |
| Cc1c(C(=O)Nc2cccnc2)cnn1-c1ccc(Cl)cc1 [Compound 142] |  |  | ≥ 90% | ≥ 50% | ≥ 75% | ≥ 75% | ≥ 80% |  |  |  |
| O=C(Nc1cccnc1)c1cnn(-c2ccc(F)cc2)c1C(F)F [Compound 94] |  |  | ≥ 90% | ≥ 50% | ≥ 75% | ≥ 75% | ≥ 80% | 100% |  |  |
| CCc1c(C(=O)Nc2cccnc2)cnn1CC [Compound 184] |  | 50% |  | ≥ 50% | ≥ 75% | ≥ 75% | ≥ 80% |  |  |  |
| CCn1cc(C(=O)N(C)c2cccnc2)c(C(F)(F)F)n1 [Compound 183] |  | 50% |  | ≥ 50% | ≥ 75% | ≥ 75% | ≥ 80% |  |  |  |
| O=C(Nc1cccnc1)c1cn(CC(F)F)nc1C(F)(F)F [Compound 232] |  | 50% |  |  |  |  | ≥ 80% |  |  |  |
| CN(C(=O)c1cn(C(F)F)nc1C(F)(F)F)c1cccnc1 [Compound 195] |  |  |  | ≥ 50% | ≥ 75% | ≥ 75% | ≥ 80% |  |  | ≥ 50% |
| Cc1nn(-c2ccccc2)cc1C(=O)Nc1cccnc1 [Compound 84] |  | 50% |  |  |  |  |  |  | ≥ 50% |  |
| CCCc1c(C(=O)Nc2cccnc2)cnn1-c1ccc(Cl)cc1 [Compound 79] | ≥ 50% | 50% |  | ≥ 50% | ≥ 75% |  |  |  |  |  |
| CN(C(=O)c1cn(C)nc1C(F)(F)F)c1cccnc1 [Compound 29, 1-Methyl-3-trifluoromethyl-1H-pyrazole-4-carboxylic acid methyl-pyridin-3-yl-amide] |  |  | ≥ 90% | ≥ 50% | ≥ 75% | ≥ 75% | ≥ 80% |  | ≥ 50% |  |
| CCc1c(C(=O)Nc2cccnc2)cnn1-c1ccc(Cl)cc1 [Compound 143] |  |  | ≥ 90% | ≥ 50% | ≥ 75% | ≥ 75% | ≥ 80% | 100% |  |  |
| Cc1c(C(=O)Nc2cccnc2)cnn1-c1ccc([N+](=O)[O-])cc1 [Compound 231] |  | 50% |  |  |  |  | ≥ 80% |  |  |  |
